Measurements published in EP4810476A1, “COCRYSTAL OF CURCUMIN AND L-CARNITINE, AND PREPARATION METHOD THEREFOR AND USE THEREOF” (Cocrystal Health Industry (Zhejiang) Co., Ltd., priority 2023, dated 2025).

Tests used:
[1] = Powder dissolution rate test; assay type: physicochemical; settings: 50 rpm, samples equivalent to 10 mg of curcumin
Protocol: Powder dissolution experiments were conducted in pH 2.0 and pH 4.5 buffer solutions (containing 0.5% Tween 80) at a temperature of 37°C and a rotation speed of 50 rpm. The commercially available curcumin crystals and the powder of the curcumin-L-carnitine cocrystal from Example 3 were sieved through a 100-mesh screen to eliminate the effect of particle size on dissolution. Samples equivalent to 10 mg of curcumin were placed into the sample vessels of the dissolution apparatus, stirred, and samples were taken at 3, 5, 10, 15, 20, 30, 45, 60, 90, and 120 minutes. Concentrations were determined using HPLC. In the pH 2.0 buffer solution, the dissolution of the cocrystal at 3 minutes was about 7 times that of curcumin itself. In the pH 4.5 buffer solution, the dissolution of the cocrystal at 3 minutes was about 8 times that of curcumin itself.

[2] = Bioavailability test (plasma pharmacokinetics after intragastric administration); parameters: species or system Male SD rats; settings: rat, in vivo, 200 mg/kg
Protocol: Male SD rats (weighing 200-300 g) kept under good feeding conditions were used for the experiment. A total of 12 rats were used, evenly divided into 2 groups of 6 rats each. Commercially available curcumin crystals and the cocrystal obtained in Example 3 were uniformly dispersed in soybean oil and administered intragastrically as a suspension. The dosage was 200 mg/kg based on curcumin content. Blood samples (1 mL per time point) were collected from the orbital venous plexus at 20 minutes, 40 minutes, 1 hour, 1.5 hours, 2.5 hours, 4 hours, 6 hours, and 8 hours after administration. Plasma was separated by centrifugation within 0.5 hours of blood collection at 10,000 rpm for 5 minutes. 100 µL of plasma was precisely transferred, added with 50 µL of enzyme buffer solution, incubated at 37°C for 60 min, then added with 0.45 mL of methanol (containing 0.2% acetic acid), vortexed for 10 min, centrifuged at 14000 rpm for 3 min, and the supernatant was collected for HPLC analysis. Table 4. Pharmacokinetic parameters for commercially available curcumin crystals and curcumin-L-carnitine cocrystal.

- dissolution of the cocrystal at 3 minutes relative to curcumin itself ([1]; pH 2.0 buffer solution containing 0.5% Tween 80, 37°C): about 7 times
- dissolution of the cocrystal at 3 minutes relative to curcumin itself ([1]; pH 4.5 buffer solution containing 0.5% Tween 80, 37°C): about 8 times
- maximum plasma concentration of curcumin relative to commercially available curcumin crystals [2]: 10.7 times
- Cmax ([2]; po): 727.8 ng/mL
- Tmax ([2]; po): 20 min
- AUC0-8h ([2]; po, 8 h): 692.5 ng·h/mL
Substance: cocrystal of curcumin and L-carnitine [Curcumin-L-carnitine cocrystal]
